Structures are written as SMILES.

What is called Kd is the equilibrium constant for the complex coming apart.

The target in experiment [1] is T1, DAN-eENTH: epsin 1 ENTH domain variant M10C/C96A/S4W, SEQ ID NO: 2, labeled with DAN at C10 (Homo sapiens, UniProt Q9Y6I3, C96A/M10C/S4W).
T1 construct: The Epsin1 ENTH domain (1-158 amino acids) was subcloned; GST (C, cleaved yes); made in house; host or cells: E. coli BL21 RIL codon plus
T1 sequence (Q9Y6I3 1-158 S4W/M10C/C96A): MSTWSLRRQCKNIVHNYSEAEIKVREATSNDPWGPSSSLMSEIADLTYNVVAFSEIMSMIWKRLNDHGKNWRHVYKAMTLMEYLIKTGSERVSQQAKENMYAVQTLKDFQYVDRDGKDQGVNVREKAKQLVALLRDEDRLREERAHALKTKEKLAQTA
The experiment can be described thus: Spectrofluorometry of DAN-eENTH binding to PtdIns(4,5)P2-containing LUVs. The procedure: To check the feasibility of PtdIns(4,5)P2 quantification using our sensor, the change in fluorescence emission of DAN-eENTH upon membrane binding was measured by spectrofluorometry.
The theoretic curve was then constructed using these parameters.
Hitachi F-4500 spectrofluorometer was used for all cuvette-based fluorescence measurements. DAN-eENTH (typically 500 nM) was added to POPC/POPS/PtdIns(4,5)P2 (80-x:20:x) (x=0-3 mol %) LUV and the emission spectra of DAN were measured with excitation wavelength set at 392 nm. The same measurements were repeated with LUVs made of different phosphoinositides, e.g., POPC/POPS/PtdIns(3,4,5)P3 (77:20:3).

The target in experiment [2] is T1, DAN-eENTH: epsin 1 ENTH domain variant M10C/C96A/S4W, SEQ ID NO: 2, labeled with DAN at C10. The experiment can be described thus: SPR equilibrium binding of DAN-eENTH to phosphoinositide-containing LUVs. An excerpt:
Provided herein is an ENTH domain of epsin1, which is linked to 2-dimethylamino-6-acyl-naphthalene (DAN). The ENTH domain contains 3 mutations, which are substitutions: M10C, C96A, and S4W. See SEQ ID NO:2. This DAN-eENTH (M10C, C96A, S4W) is an exceptional, high-affinity phosphatidylinositol-4,5-bisphosphate (PtdIns(4,5)P2)-binding protein.
The ENTH domain was engineered to introduce a single labeling site (M10C) on the membrane binding surface while removing an endogenous Cys (C96A). We also performed the S4W mutation to suppress its residual affinity for another lipid, phosphatidylinositol-3,4,5-trisphosphate (PtdIns(3,4,5)P3) (PtdIns(4,5)P2/PtdIns(3,4,5)P3=4 for wild type and >10 for the mutant) and to enhance the overall affinity for PtdIns(4,5)P2-containing membranes (ca. 4-fold) (Table 1).
With respect to FIG. 1, an L1 sensor chip was coated with POPC/POPS/PtdIns(4,5)P2 (77:20:3) LUVs. The proteins were incubated with a given concentration of IP3 for 5 minutes before injecting into the SPR instrument. Kinetic SPR measurements were performed in 20 mM Tris-HCL, pH 7.4, containing 0.16 KCl. […] A lower concentration of DAN-eENTH was used than that of PLCδ PH because the former has much higher affinity that the latter.
All mutations (S4W, M10C, and C96A) were performed by polymerase chain reaction mutagenesis and verified by DNA sequencing. eENTH may comprise the following sequence:
E. coli BL21 RIL codon plus (Stratagene) cells were used for protein expression. Cells were grown in Luria broth media containing 100 μg/ml of ampicillin at 37° C. 0.1 mM of Isopropyl β-D-1-thiogalactopyranoside was added to induce over-expression of recombinant proteins when the OD600 reached 0.5-0.8 and cells were grown for additional 6 to 10 hours at 25° C. Cells were harvested by centrifugation and cell pellets were resuspended in 50 mM Tris-HCl buffer (pH 7.4) containing 160 mM KCl, 1 mM phenylmethanesulphonylfluoride, and 5 mM of dithiothreitol (DTT). Cells were lysed by sonication and the lysate was collected by centrifugation at 4° C. The GST-affinity resin (GenScript) for GST-tagged proteins or nickel-nitrilotriacetic acid resin (Qiagen, Valencia, Calif.) for His6-tagged proteins was added into the cell lysate and the mixture was gently shaken for 30 minutes at 4° C. The mixture was applied to a column and the column was washed once with 50 mM Tris-HCl buffer (pH 7.4) containing 160 mM KCl and 5 mM of DTT to reduce thiol group, and washed several times with the same buffer without DTT to remove DTT. For DAN labeling, 100 μg of acrylodan was added to the column at this stage and incubated 16 hours at 4° C. The excess acrylodan was removed by washing the column with the buffer several times. Thrombin (Invitrogen) was added to column to remove the GST tag and the mixture was incubated at 4° C. for 10 hours. The labeled protein was eluted from the column by and the collected fractions were applied to ion exchange column. Purity and the concentration of the recombinant proteins were determined by sodium dodecylsulfate-polyacrylamide gel electrophoresis and bicinchoninic acid assay, respectively. The DAN labeling yield of eENTH, which was calculated as the molar ratio of DAN (determined spectrophotometrically at 391 nm using its extinction coefficient of 20,000 cm^−1 M^−1) to protein, was typically 60-70%.
LUVs were prepared by extrusion using a 100 nm-pore membrane. GUVs were prepared by electroformation. […]

With `CCCCCCCCCCCCCCCC(=O)OC[C@H](COP(=O)(O)O[C@@H]1[C@H](O)[C@H](O)[C@@H](OP(=O)(O)O)[C@H](OP(=O)(O)O)[C@H]1O)OC(=O)CCCCCCCCCCCCCCC` [PtdIns(4,5)P2, phosphatidylinositol-4,5-bisphosphate], the “Kd for PtdIns(4,5)P2 (F450/F520 ratiometric analysis)” value in experiment [1] (F450/F520 versus [PtdIns(4,5)P2], LUVs) is reported as 1.2+/−0.2 mol %. Further, the “Kd for PtdIns(4,5)P2 (F450 analysis)” value in experiment [1] (F450 versus [PtdIns(4,5)P2], 500 nM DAN-eENTH, LUVs) is on record as 1.2+/−0.2 mol %. The dissociation constant (Kd) is 60 nM in experiment [1] (F450 versus [PtdIns(4,5)P2], assumes only half of total lipids available to the sensor, read-out: Kd for PtdIns(4,5)P2 (F450 analysis, converted)) and 4 nM in experiment [2] (SPR, POPC/POPS/PtdIns(4,5)P2 (77:20:3) LUVs, 20 mM Tris-HCl pH 7.4, 0.16 M KCl, read-out: Kd for PtdIns(4,5)P2). The “affinity for PtdIns(4,5)P2-containing vesicles relative to eENTH” value in experiment [2] (higher than eENTH) is given as “about 3 fold”. Besides, the “affinity for PtdIns(4,5)P2-containing vesicles relative to wild type” value in experiment [2] (higher than the wild type) is reported as 12 fold.

Values taken from patent US8686115B2, “Compositions and methods for quantitatively monitoring lipids” (The Board of Trustees of the University of Illinois, priority 2009, dated 2014).
